Source: patent publication US20110104159A1, “COMPOSITIONS AND METHODS FOR TREATING, CONTROLLING, REDUCING, AMELIORATING, OR PREVENTING ALLERGY” (priority 2006, published 2011)
Values joined by “and” are separate entries in the source; they are usually repeats but may differ in a detail not shown here. Equal entries are not always repeated.

Columns and labels:
PGE2 = test: Prostaglandin E2 (PGE2) measurement in aqueous humor; type: in vivo, Rabbit; details: for PGE2 in aqueous humor at the second paracentesis, Mean: group mean; for PGE2 in aqueous humor at the second paracentesis: individual eye sample, listed as BOL; for PGE2 in aqueous humor, statistical comparison with CTR: p<0.05
Experimental: (§1) Each rabbit was placed in a restraint device and tagged with the alphanumeric code. The formulations were instilled (50 μl) into the conjunctival sac of both eyes 180, 120, 90 and 30 min before the first paracentesis; then 15, 30, 90 min after the first paracentesis. To perform the first paracentesis the animals were anaesthetized by intravenous injection of 5 mg/kg Zoletil® (Virbac; 2.5 mg/kg tiletamine HCl and 2.5 mg/kg zolazepam HCl) and one drop of local anesthetic (Novesina®, Novartis) was administered to the eye. Anterior chamber paracentesis was performed with a 26 G needle attached to a tuberculin syringe; the needle was introduced into the anterior chamber through the cornea, taking care not to damage the tissues. Two hours after the first paracentesis, the animals were sacrificed with 0.4 ml Tanax® (Intervet International B.V.) and the second paracentesis was performed. About 100 μl of aqueous humor were removed at the second paracentesis. Aqueous humor was immediately split in four aliquots and stored at −80° C. until analysis. Then both eyes were enucleated and the iris-ciliary body was carefully excised, placed in polypropylene tubes, and stored at −80° C. until analysis.
For the quantitative determination of PGE2 in the aqueous humor we used the PGE2 Immunoassay kit (R&D Systems; Cat. No. KGE004; Lot. No. 240010). Eleven microliters or 16 μl of aqueous humor were diluted to 110 μl or 160 μl with the calibrator diluent solution provided with the kit. One hundred microliters of samples and of standards were load into a 96-well plate and recorded in a plate layout. Samples were treated following the assay procedure described in the kit. A microplate reader (GDV, Italy; model DV 990 B/V6) set at 450 nm (wavelength correction at 540 nm) was used for making the calibration and analyzing the samples.

CXCR4 receptor = CXCR4 receptor surface expression in human eosinophils (FACS), transactivation marker; type: cell-based; details: 24 h
Experimental: FACS was performed to measure cell surface expression of annexin I and CXCR4 as indicators of glucocorticoid-mediated transactivation. Human eosinophils were double-stained with a red dye-conjugated secondary antibody to trace changes in the expression of CXCR4 or I, and a green dye-conjugated annexin V to exclude apoptotic cells from the analysis. The cells were counted and transferred to a 24-well plate (10^6 cells/well) and serum-starved (0.1% FBS) for 24 h.
At the end of the incubation, the cells were harvested and each sample was divided into two tubes to run parallel tests for annexin I and CXCR4 surface expression. After rinsing all samples with a HBSS solution containing 1% BSA, the cells were incubated for 45 min on a shaker with anti-annexin I or anti-CXCR4 antibodies (1:200) on ice; the negative control was incubated with an isotype-specific control antibody.
The cells were then washed twice with HBSS/BSA buffer before exposure to the Alexa Fluor® 568-conjugated secondary antibody. The excess of unbound antibody was washed away, and all samples were incubated for 15 min in the presence of annexin V-Fluos. […] Electronic gates were set on annexin V-negative cells and CXCR4 or annexin I-positive cells. Data from 10,000 cells/sample were analyzed using dedicated software (Becton, Dickinson and Company). The % of CXCR4 or annexin I positive cells was calculated.

[1] = conditions similar to the in vitro models used [28]; cited from earlier work
[2] = tested on: cultured human ocular cells; details: cultured human ocular cells [13, 29]; cited from earlier work
[3] = tested on: rabbit paracentesis model; test: Pupillary diameter measurement, rabbit paracentesis model; type: in vivo; details: for Pupillary diameter T2: −5 min: 5 min before first paracentesis; for Pupillary diameter T2: −5 min / Pupillary diameter T3: +115 min / Pupillary diameter Δ(T3 − T1) / Pupillary diameter T1: −180 min: individual eye, listed as BOL; for Pupillary diameter T3: +115 min: 5 min before second paracentesis; for Pupillary diameter Δ(T3 − T1): +115 min minus −180 min; for Pupillary diameter T1: −180 min: basal; for Mean (mm) Δ(T3 − T1) of pupillary diameter: group mean, n=8 eyes
Experimental: as §1
The pupillary diameter of both eyes was measured with a Castroviejo caliper 180 min and 5 min before the first paracentesis and 5 min before the second paracentesis.

[4] = tested on: protein concentration in the aqueous humor; test: Protein measurement in aqueous humor; type: in vivo, Rabbit; details: for Protein in aqueous humor at the second paracentesis, Mean: group mean; for Protein in aqueous humor at the second paracentesis: individual eye sample, listed as BOL
Experimental: as §1
For protein concentration determination in the aqueous humor we used the Protein Quantification Kit (Fluka; Cat. No. 77371; Lot. No. 1303129). Five microliters of aqueous humor were diluted to 100 μl with water. Twenty microliters of samples and of standards were load into a 96-well plate and recorded in a plate layout. Samples were treated following the assay procedure described in the kit. A microplate reader (GDV, Italy; model DV 990 B/V6) set at 670 nm was used for making the calibration and analyzing the samples.

[5] = tested on: ovalbumin-sensitized guinea pigs; test: Conjunctival eosinophil infiltration (histology) in OVA-challenged guinea pigs; type: in vivo, guinea pig; details: 0.4% eye drops; 24 h after OVA challenge; vs OVA-treated animals
Experimental: Male Dunkin-Hartley guinea pigs were actively immunized by i.p. injection of 200 μg OVA in 2 ml saline with 40 mg aluminum hydroxide (positive control) or saline alone (negative control), as previously reported. […] Negative controls received saline alone.
Conjunctival clinical symptoms were rated blind on both eyes using the following scale: 0, no symptoms; 1, slight conjunctival redness with or without tears; 2, mild conjunctival redness with tears and mild chemosis; 3, mild conjunctival redness with tears and moderate chemosis; 4, severe conjunctival redness with tears and partial lid eversion; 5, severe conjunctival redness with tears and lids more than half closed. The animals were euthanized 24 h after OVA challenge by i.p. injection of Tanax® (3 ml/kg; Hoechst AG, Frankfurt-am-Main, Germany) and the conjunctivas were carefully excised and each was divided into two samples for subsequent investigations. One sample was fixed in 10% buffered paraformaldehyde solution and paraffin-embedded; slides, 6 μm thick, were stained as described. The number of eosinophils in each field was counted under light microscopy (×500 magnification). In the other sample eosinophil peroxidase activity was measured.

EoL-1 cells = test: EoL-1 cell apoptosis (annexin V/PI flow cytometry); type: cell-based, human
Experimental: EoL-1 cells were grown in RPMI-1640+L-glutamine medium (containing 10% FBS) and kept at 37° C. in a 5% CO2 humidified atmosphere. Before each experiment, the cells were stabilized in serum-depleted media (0.1% FBS) for 24 h before treatments.

Cc1ccc2c(NC[C@](O)(CC(C)(C)c3cc(F)cc4c3OCC4)C(F)(F)F)cccc2n1 [BOL-303242-X, (R)-1,1,1-Trifluoro-4-(5-fluoro-2,3-dihydrobenzofuran-7-yl)-4-methyl-2-{[(2-methyl-5-quinolyl)amino]methyl}pentan-2-ol]
PGE2 in aqueous humor at the second paracentesis, Mean (PGE2; 0.1% topical): 1.452 ng/mL | PGE2 in aqueous humor at the second paracentesis (PGE2; 0.1% topical): 1.62 ng/mL and 1.88 ng/mL and 2.15 ng/mL and 0.70 ng/mL and 1.34 ng/mL and 1.03 ng/mL | PGE2 in aqueous humor, statistical comparison with CTR (PGE2; 0.1% topical): statistically significant versus CTR | PGE2 in aqueous humor at the second paracentesis, Mean (PGE2; 0.5% topical): 1.384 ng/mL | PGE2 in aqueous humor at the second paracentesis (PGE2; 0.5% topical): 2.31 ng/mL and 2.59 ng/mL and 0.53 ng/mL and 0.75 ng/mL and 0.80 ng/mL and 1.62 ng/mL and 1.09 ng/mL | PGE2 in aqueous humor, statistical comparison with CTR (PGE2; 0.5% topical): statistically significant versus CTR | PGE2 in aqueous humor at the second paracentesis, Mean (PGE2; 1% topical): 2.168 ng/mL | PGE2 in aqueous humor at the second paracentesis (PGE2; 1% topical): 0.50 ng/mL and 1.87 ng/mL and 1.71 ng/mL and 4.04 ng/mL and 1.11 ng/mL and 3.78 ng/mL | CXCR4 receptor surface expression (CXCR4 receptor; 10 000 nM, significantly lower than 1000 nM dexamethasone): partially increased this receptor on the cell surface | CXCR4 receptor surface expression (CXCR4 receptor; up to 5000 nM, vs vehicle-treated or control eosinophils): did not change CXCR4 receptor expression | Stability of the compound [1]: stable | Blocking inflammatory cytokine release [2]: equally potent in blocking inflammatory cytokine release | Pupillary diameter T2: −5 min ([3]; 0.1% topical): 6.5 mm (3×) and 7.0 mm (4×) and 7.5 mm | Pupillary diameter T3: +115 min ([3]; 0.1% topical): 5.0 mm (2×) and 6.0 mm (3×) and 6.5 mm and 5.5 mm (2×) | Pupillary diameter Δ(T3 − T1) ([3]; 0.1% topical): −1.5 mm (4×) and −0.5 mm (2×) and −1.0 mm (2×) | Pupillary diameter T1: −180 min ([3]; 0.1% topical): 6.5 mm (4×) and 7.0 mm (3×) and 7.5 mm | Pupillary diameter T2: −5 min ([3]; 0.5% topical): 8.0 mm (3×) and 7.0 mm (4×) and 7.5 mm | Pupillary diameter T3: +115 min ([3]; 0.5% topical): 6.5 mm (4×) and 6.0 mm (2×) and 7.0 mm (2×) | Pupillary diameter Δ(T3 − T1) ([3]; 0.5% topical): −1.5 mm (2×) and −0.5 mm (2×) and −1.0 mm (4×) | Pupillary diameter T1: −180 min ([3]; 0.5% topical): 8.0 mm (3×) and 7.0 mm (3×) and 7.5 mm (2×) | Mean (mm) Δ(T3 − T1) of pupillary diameter ([3]; 0.5% topical): −1.0 mm | Pupillary diameter T2: −5 min ([3]; 1% topical): 6.0 mm (2×) and 6.5 mm (4×) and 7.0 mm (2×) | Pupillary diameter T3: +115 min ([3]; 1% topical): 5.5 mm (2×) and 5.0 mm (4×) and 6.0 mm (2×) | Pupillary diameter Δ(T3 − T1) ([3]; 1% topical): −0.5 mm (3×) and −1.5 mm (2×) and −1.0 mm (3×) | Pupillary diameter T1: −180 min ([3]; 1% topical): 6.0 mm (3×) and 6.5 mm (5×) | Mean (mm) Δ(T3 − T1) of pupillary diameter ([3]; 1% topical): −0.9 mm | Protein in aqueous humor at the second paracentesis, Mean ([4]; 0.1% topical): 33.667 mg/mL | Protein in aqueous humor at the second paracentesis ([4]; 0.1% topical): 34.87 mg/mL and 34.41 mg/mL and 31.14 mg/mL and 22.82 mg/mL and 29.46 mg/mL and 31.69 mg/mL and 35.70 mg/mL and 49.25 mg/mL | Protein in aqueous humor at the second paracentesis, Mean ([4]; 0.5% topical): 28.844 mg/mL | Protein in aqueous humor at the second paracentesis ([4]; 0.5% topical): 33.98 mg/mL and 33.65 mg/mL and 19.99 mg/mL and 27.11 mg/mL and 19.72 mg/mL and 36.35 mg/mL and 27.71 mg/mL and 32.24 mg/mL | Protein in aqueous humor, statistical comparison with CTR ([4]; 0.5% topical, p<0.05): statistical significance | Protein in aqueous humor at the second paracentesis, Mean ([4]; 1% topical): 21.435 mg/mL | Protein in aqueous humor at the second paracentesis ([4]; 1% topical): 20.99 mg/mL and 21.48 mg/mL and 15.11 mg/mL and 20.28 mg/mL and 20.94 mg/mL and 21.89 mg/mL and 20.03 mg/mL and 30.76 mg/mL | Protein in aqueous humor, statistical comparison with CTR ([4]; 1% topical, p<0.001): statistical significance | Eosinophil infiltration of the conjunctiva (histology) [5]: much less marked | Efficacy, enhancement of spontaneous EoL-1 cell apoptosis (EoL-1 cells; 0.1% FBS 96 h, compound during the last 72 h): 61% | Percentage of annexin-V+/PI+ (necrotic) EoL-1 cells (EoL-1 cells; 72 h, 5000 nM, n=12, p>0.05 vs without compound (12±5%)): 7±4% | EC50 (EoL-1 cells; Homo sapiens, EOL1, 0.1% FBS 96 h, compound during the last 72 h, read-out: EC50, enhancement of spontaneous EoL-1 cell apoptosis): 315 nM
